Source: patent publication US20210395239A1 (Hoffmann-La Roche Inc., priority 2018, published 2021)

molecular target: T1, human TLR8 (Homo sapiens, UniProt Q9NR97); experiment: HEK293-Blue-hTLR-8 cells assay (SEAP reporter, R848 stimulation); type: cell-based; details: HEK293-Blue-hTLR8 cells, R848, 20 hrs; read-out: HEK/hTLR8 IC50
T1 construct: host or cells: HEK293 (HEK-Blue hTLR8)
T1 sequence (Q9NR97 27-1041): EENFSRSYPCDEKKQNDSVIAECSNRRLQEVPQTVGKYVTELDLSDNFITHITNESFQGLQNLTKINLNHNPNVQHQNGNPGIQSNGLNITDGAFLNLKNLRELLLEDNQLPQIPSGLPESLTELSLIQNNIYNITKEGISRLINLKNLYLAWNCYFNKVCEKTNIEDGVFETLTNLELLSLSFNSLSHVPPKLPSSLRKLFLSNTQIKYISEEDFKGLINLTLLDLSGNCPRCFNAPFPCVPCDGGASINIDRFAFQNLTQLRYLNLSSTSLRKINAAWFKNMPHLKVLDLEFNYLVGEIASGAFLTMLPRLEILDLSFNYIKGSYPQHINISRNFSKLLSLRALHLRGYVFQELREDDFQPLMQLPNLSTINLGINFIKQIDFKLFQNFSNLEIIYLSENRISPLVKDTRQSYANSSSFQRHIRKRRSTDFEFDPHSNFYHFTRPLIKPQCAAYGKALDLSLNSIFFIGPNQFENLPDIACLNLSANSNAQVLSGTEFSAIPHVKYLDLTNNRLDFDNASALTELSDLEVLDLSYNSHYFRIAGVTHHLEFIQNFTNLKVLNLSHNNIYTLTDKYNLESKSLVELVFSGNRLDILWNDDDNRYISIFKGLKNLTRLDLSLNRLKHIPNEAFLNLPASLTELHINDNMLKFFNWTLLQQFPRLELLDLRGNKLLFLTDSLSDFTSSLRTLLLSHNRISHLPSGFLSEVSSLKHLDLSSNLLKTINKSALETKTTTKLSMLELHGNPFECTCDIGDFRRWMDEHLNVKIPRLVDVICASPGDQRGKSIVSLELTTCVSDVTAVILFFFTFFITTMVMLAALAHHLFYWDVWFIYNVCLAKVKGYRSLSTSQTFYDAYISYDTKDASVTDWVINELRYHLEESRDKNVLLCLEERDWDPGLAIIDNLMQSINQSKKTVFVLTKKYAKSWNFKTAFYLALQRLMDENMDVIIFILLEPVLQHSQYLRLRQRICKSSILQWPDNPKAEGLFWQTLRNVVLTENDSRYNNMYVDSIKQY
Description: HEK293-Blue-hTLR-8 Cells Assay:
A stable HEK293-Blue-hTLR-8 cell line was purchased from InvivoGen (Cat. #: hkb-ht1r8, San Diego, Calif., USA). These cells were originally designed for studying the stimulation of human TLR8 by monitoring the activation of NF-κB. A SEAP (secreted embryonic alkaline phosphatase) reporter gene was placed under the control of the IFN-β minimal promoter fused to five NF-κB and AP-1-binding sites. The SEAP was induced by activating NF-κB and AP-1 via stimulating HEK-Blue hTLR8 cells with TLR8 ligands. Therefore the reporter expression was declined by TLR8 antagonist under the stimulation of a ligand, such as R848, for incubation of 20 hrs. The cell culture supernatant SEAP reporter activity was determined using QUANTI-Blue™ kit (Cat. #: rep-qb1, Invivogen, San Diego, Ca, USA) at a wavelength of 640 nm, a detection medium that turns purple or blue in the presence of alkaline phosphatase.
HEK293-Blue-hTLR8 cells were incubated at a density of 250,000˜450,000 cells/mL in a volume of 170 μL in a 96-well plate in Dulbecco's Modified Eagle's medium (DMEM) containing 4.5 g/L glucose, 50 U/mL penicillin, […], […], 2 mM L-glutamine, 10% (v/v) heat-inactivated fetal bovine serum with addition of 20 μL test compound in a serial dilution in the presence of final DMSO at 1% and 10 μL of 60 uM R848 in above DMEM, perform incubation under 37° C. in a CO2 incubator for 20 hrs. Then 20 μL of the supernatant from each well was incubated with 180 μL Quanti-blue substrate solution at 37° C. for 2 hrs and the absorbance was read at 620˜655 nm using a spectrophotometer. The signaling pathway that TLR8 activation leads to downstream NF-κB activation has been widely accepted, and therefore similar reporter assay was modified for evaluating TLR8 antagonist.

Compound	IC50 [nM]
CO[C@H]1CN(c2nc(C)cc(N3CCN(C[C@H]4CN(c5ccc(C#N)c6nccnc56)C[C@@H](C)O4)CC3)n2)C[C@@H]1N [Example 106, 8-[(2S,6R)-2-[[4-[2-[(3S,4S)-3-amino-4-methoxy-pyrrolidin-1-yl]-6-methyl-pyrimidin-4-yl]piperazin-1-yl]methyl]-6-methyl-morpholin-4-yl]quinoxaline-5-carbonitrile]	1
C[C@@H]1CN(c2ccc(C#N)c3nccnc23)C[C@H](CN2CCN(c3ccnc(N4C[C@H](N)[C@@H](F)C4)n3)CC2)O1 [Example 107, 8-[(2S,6R)-2-[[4-[2-[(3S,4S)-3-amino-4-fluoro-pyrrolidin-1-yl]pyrimidin-4-yl]piperazin-1-yl]methyl]-6-methyl-morpholin-4-yl]quinoxaline-5-carbonitrile]	1
C[C@@H]1CN(c2ccc(C#N)c3nccnc23)C[C@H](CN2CCN(c3ccnc(N4C[C@@H](N)[C@@H](F)C4)n3)CC2)O1 [Example 108, 8-[(2S,6R)-2-[[4-[2-[(3R,4S)-3-amino-4-fluoro-pyrrolidin-1-yl]pyrimidin-4-yl]piperazin-1-yl]methyl]-6-methyl-morpholin-4-yl]quinoxaline-5-carbonitrile]	1
COC1CCN(c2nccc(N3CCN(C[C@H]4CN(c5ccc(C#N)c6ncccc56)C[C@@H](C)O4)CC3)n2)CC1N (stereo partly drawn) [Example 109, 5-[(2S,6R)-2-[[4-[2-(3-amino-4-methoxy-1-piperidyl)pyrimidin-4-yl]piperazin-1-yl]methyl]-6-methyl-morpholin-4-yl]quinoline-8-carbonitrile]	2
C[C@@H]1CN(c2ccc(C#N)c3ncccc23)C[C@H](CN2CCN(c3ccnc(N4C[C@H](N)[C@@H](F)C4)n3)CC2)O1 [Example 110, 5-[(2S,6R)-2-[[4-[2-[(3S,4S)-3-amino-4-fluoro-pyrrolidin-1-yl]pyrimidin-4-yl]piperazin-1-yl]methyl]-6-methyl-morpholin-4-yl]quinoline-8-carbonitrile]	2
C[C@@H]1CN(c2ccc(C#N)c3nccnc23)C[C@H](CN2CCN(c3ccnc(N4CC[C@H](N)[C@H](F)C4)n3)CC2)O1 [Example 111, 8-[(2S,6R)-2-[[4-[2-[(3R,4S)-4-amino-3-fluoro-1-piperidyl]pyrimidin-4-yl]piperazin-1-yl]methyl]-6-methyl-morpholin-4-yl]quinoxaline-5-carbonitrile]	1
Cc1cc(N2CCN(C[C@H]3CN(c4ccc(C#N)c5nccnc45)C[C@@H](C)O3)CC2)nc(N2CC(N)C2)n1 [Example 112, 8-[(2S,6R)-2-[[4-[2-(3-aminoazetidin-1-yl)-6-methyl-pyrimidin-4-yl]piperazin-1-yl]methyl]-6-methyl-morpholin-4-yl]quinoxaline-5-carbonitrile]	1
C[C@@H]1CN(c2ccc(C#N)c3nccnc23)C[C@H](CN2CCN(c3ccnc(N4CC[C@@H](N)[C@H](F)C4)n3)CC2)O1 [Example 113, 8-[(2S,6R)-2-[[4-[2-[(3R,4R)-4-amino-3-fluoro-1-piperidyl]pyrimidin-4-yl]piperazin-1-yl]methyl]-6-methyl-morpholin-4-yl]quinoxaline-5-carbonitrile]	1
Cc1cc(N2CCNCC2)nc(N2CCN(C[C@H]3CN(c4ccc(C#N)c5nccnc45)C[C@@H](C)O3)CC2)n1 [Example 114, 8-[(2R,6S)-2-methyl-6-[[4-(4-methyl-6-piperazin-1-yl-pyrimidin-2-yl)piperazin-1-yl]methyl]morpholin-4-yl]quinoxaline-5-carbonitrile]	1
Cc1cc(N2C[C@@H](N)[C@@H](F)C2)nc(N2CCN(C[C@H]3CN(c4ccc(C#N)c5nccnc45)C[C@@H](C)O3)CC2)n1 [Example 115, 8-[(2S,6R)-2-[[4-[4-[(3R,4S)-3-amino-4-fluoro-pyrrolidin-1-yl]-6-methyl-pyrimidin-2-yl]piperazin-1-yl]methyl]-6-methyl-morpholin-4-yl]quinoxaline-5-carbonitrile]	1
Cc1ccc(N2C[C@H](CN3CCN(c4nccc(N5CCNCC5)n4)CC3)O[C@H](C)C2)c2nccnc12 [Example 116, (2R,6S)-2-methyl-4-(8-methylquinoxalin-5-yl)-6-[[4-(4-piperazin-1-ylpyrimidin-2-yl)piperazin-1-yl]methyl]morpholine]	5
Cc1ccc(N2C[C@H](CN3CCN(c4ccnc(N5CCNCC5)n4)CC3)O[C@H](C)C2)c2nccnc12 [Example 117, (2R,6S)-2-methyl-4-(8-methylquinoxalin-5-yl)-6-[[4-(2-piperazin-1-ylpyrimidin-4-yl)piperazin-1-yl]methyl]morpholine]	7
C[C@@H]1CN(c2ccc(C#N)c3nccnc23)C[C@H](CN2CCN(c3nccc(N4CC(N)C4)n3)CC2)O1 [Example 118, 8-[(2S,6R)-2-[[4-[4-(3-aminoazetidin-1-yl)pyrimidin-2-yl]piperazin-1-yl]methyl]-6-methyl-morpholin-4-yl]quinoxaline-5-carbonitrile]	1
C[C@@H]1CN(c2ccc(C#N)c3nccnc23)C[C@H](CN2CCN(c3nccc(N4C[C@@H](N)[C@H](F)C4)n3)CC2)O1 [Example 119, 8-[(2S,6R)-2-[[4-[4-[(3R,4R)-3-amino-4-fluoro-pyrrolidin-1-yl]pyrimidin-2-yl]piperazin-1-yl]methyl]-6-methyl-morpholin-4-yl]quinoxaline-5-carbonitrile]	1
CO[C@@H]1CN(c2cc(C)nc(N3CCN(C[C@H]4CN(c5ccc(C#N)c6nccnc56)C[C@@H](C)O4)CC3)n2)C[C@@H]1N [Example 120, 8-[(2S,6R)-2-[[4-[4-[(3S,4R)-3-amino-4-methoxy-pyrrolidin-1-yl]-6-methyl-pyrimidin-2-yl]piperazin-1-yl]methyl]-6-methyl-morpholin-4-yl]quinoxaline-5-carbonitrile]	1
CO[C@@H]1CN(c2cc(C)nc(N3CCN(C[C@H]4CN(c5ccc(C#N)c6nccnc56)C[C@@H](C)O4)CC3)n2)C[C@H]1N [Example 121, 8-[(2S,6R)-2-[[4-[4-[(3R,4R)-3-amino-4-methoxy-pyrrolidin-1-yl]-6-methyl-pyrimidin-2-yl]piperazin-1-yl]methyl]-6-methyl-morpholin-4-yl]quinoxaline-5-carbonitrile]	1
CO[C@H]1CN(c2cc(C)nc(N3CCN(C[C@H]4CN(c5ccc(C#N)c6nccnc56)C[C@@H](C)O4)CC3)n2)C[C@H]1N [Example 122, 8-[(2S,6R)-2-[[4-[4-[(3R,4S)-3-amino-4-methoxy-pyrrolidin-1-yl]-6-methyl-pyrimidin-2-yl]piperazin-1-yl]methyl]-6-methyl-morpholin-4-yl]quinoxaline-5-carbonitrile]	1
Cc1cc(N2CC(N)C2)nc(N2CCN(C[C@H]3CN(c4ccc(C#N)c5nccnc45)C[C@@H](C)O3)CC2)n1 [Example 123, 8-[(2S,6R)-2-[[4-[4-(3-aminoazetidin-1-yl)-6-methyl-pyrimidin-2-yl]piperazin-1-yl]methyl]-6-methyl-morpholin-4-yl]quinoxaline-5-carbonitrile]	1
